# Assay results from US10874745B2, “Antimicrobial peptides and methods of treating gram-negative pathogens: polar and non-polar face analogs” (priority 2017, dated 2020).
# Values joined by “and” are separate entries in the source; they are usually repeats but may differ in a detail not shown here. Equal values may be shown once. Read-outs that look alike come from different tables or passages of the source. Non-standard residues stand in square brackets, D forms with d. Residues, ends and D or L forms follow the SMILES beside them. dDab = NCC[C@@H](N)C(=O)O; dDap = NC[C@@H](N)C(=O)O
# Experiments:
# Hemolytic activity = format: cell-based, human; conditions: human, 1% human erythrocytes (red blood cells), pH 7.4
# Protocol: (§1) Hemoglobin release was determined spectrophotometrically at 570 nm. […] […] […] With the peptides used in this study the inventors used the HC30/MIC ratio value to calculate the therapeutic index.
# human red blood cells = experiment: Hemolytic activity; format: cell-based
# Protocol: as §1
# [1] = system: A. baumannii strains resistant to Polymyxin B and Colistin; format: cell-based
# Source text: Gram-Negative Bacterial Strains used in this Study: All the A. baumannii strains used in this study were 1) obtained from the collection of Dr. Anthony A. Campagnari at the University of Buffalo and originally isolated from different patients and organs/tissues (strain 649, blood; strain 689, groin; strain 759, gluteus; strain 884, axilla; strain 985, pleural fluid); 2) were purchased from the American Type Culture Collection (ATCC, Manassas, Va., USA) (strain ATCC 17978, fatal meningitis; and strain ATCC 19606, urine); 3) obtained from MERCK (M89941, M89949, M89951, M89952, M89953, M89955 and M89963). These seven A. baumannii strains were resistant to polymyxin B and polymyxin E (Colistin).
# Measurement of Antimicrobial Activity (MIC): The minimal inhibitory concentration (MIC) is defined as the lowest peptide concentration that inhibited bacterial growth. MICs were measured by a standard microtiter dilution method in Mueller Hinton (MH) medium. Briefly, cells were grown overnight at 37° C. in MH broth and were diluted in the same medium. […] The plates were incubated at 37° C. for 24 h, and the MICs were determined.
compound,measurement,setting,value
"CC(=O)N[C@H](CCCCN)C(=O)N[C@H](CC(C)C)C(=O)N[C@H](CN)C(=O)N[C@H](CO)C(=O)N[C@H](CC(C)C)C(=O)N[C@H](CC(C)C)C(=O)N[C@H](CN)C(=O)N[C@@H](C(=O)N[C@H](CC(C)C)C(=O)N[C@H](CO)C(=O)N[C@H](C)C(=O)N[C@H](C)C(=O)N[C@H](CCCCN)C(=O)N[C@H](CN)C(=O)N[C@H](CN)C(=O)N[C@H](CCCCN)C(=O)N[C@H](CC(C)C)C(=O)N[C@H](C)C(=O)N[C@@H](C(=O)N[C@H](CC(C)C)C(=O)N[C@H](CC(C)C)C(=O)N[C@H](CN)C(=O)N[C@H](C)C(=O)N[C@H](CC(C)C)C(=O)N[C@H](CO)C(=O)N[C@H](CN)C(N)=O)[C@H](C)O)[C@H](C)O [Peptide D106, Ac-KL(Dpr)SLL(Dpr)TLSAAK(Dpr)(Dpr)KLATLL(Dpr)ALs(Dpr)-amide] (Ac-[dK][dL][dDap][dS][dL][dL][dDap][dT][dL][dS][dA][dA][dK][dDap][dDap][dK][dL][dA][dT][dL][dL][dDap][dA][dL][dS][dDap]-NH2)",HC50 at 18 h,Hemolytic activity,889 µg/mL and 340 µM
same,HC50,human red blood cells,340.2 µM
same,MIC,[1]; strain MB9941 (Table 9C),0.8 µM
same,MIC,[1]; strain MB9949 (Table 9C),0.8 µM
same,MIC,[1]; strain MB9951 (Table 9C),1.5 µM
same,MIC,[1]; strain MB9952 (Table 9C),0.8 µM
same,MIC,[1]; strain MB9953 (Table 9C),0.8 µM
same,MIC,[1]; strain MB9955 (Table 9C),0.4 µM
same,MIC,[1]; strain MB9963 (Table 9C),0.8 µM
"CC(=O)N[C@H](CCCCN)C(=O)N[C@H](CC(C)C)C(=O)N[C@H](CCCN)C(=O)N[C@H](CO)C(=O)N[C@H](CC(C)C)C(=O)N[C@H](CC(C)C)C(=O)N[C@H](CCCN)C(=O)N[C@@H](C(=O)N[C@H](CC(C)C)C(=O)N[C@H](CO)C(=O)N[C@H](CCCN)C(=O)N[C@H](C)C(=O)N[C@H](CCCCN)C(=O)N[C@H](C)C(=O)N[C@H](C)C(=O)N[C@H](CCCCN)C(=O)N[C@H](CC(C)C)C(=O)N[C@H](CCCN)C(=O)N[C@@H](C(=O)N[C@H](CC(C)C)C(=O)N[C@H](CC(C)C)C(=O)N[C@H](CCCN)C(=O)N[C@H](C)C(=O)N[C@H](CC(C)C)C(=O)N[C@H](CO)C(=O)N[C@H](CCCN)C(N)=O)[C@H](C)O)[C@H](C)O [Peptide D85, Ac-KL(Orn)SLL(Orn)TLS(Orn)AKAAKL(Orn)TLL(Orn)ALS(Orn)-amide]",HC50 at 18 h,Hemolytic activity,406 µg/mL
same,MIC,[1]; strain MB9941 (Table 9C),0.7 µM
same,MIC,[1]; strain MB9949 (Table 9C),0.7 µM
same,MIC,[1]; strain MB9951 (Table 9C),0.7 µM
same,MIC,[1]; strain MB9952 (Table 9C),0.4 µM
same,MIC,[1]; strain MB9953 (Table 9C),0.4 µM
same,MIC,[1]; strain MB9955 (Table 9C),0.4 µM
same,MIC,[1]; strain MB9963 (Table 9C),0.4 µM
"CC(=O)N[C@H](CCCCN)C(=O)N[C@H](CC(C)C)C(=O)N[C@H](CCCCN)C(=O)N[C@H](CO)C(=O)N[C@H](CC(C)C)C(=O)N[C@H](CC(C)C)C(=O)N[C@H](CCCCN)C(=O)N[C@@H](C(=O)N[C@H](CC(C)C)C(=O)N[C@H](CO)C(=O)N[C@H](CCCCN)C(=O)N[C@H](C)C(=O)N[C@H](CCCCN)C(=O)N[C@H](C)C(=O)N[C@H](C)C(=O)N[C@H](CCCCN)C(=O)N[C@H](CC(C)C)C(=O)N[C@H](CCCCN)C(=O)N[C@@H](C(=O)N[C@H](CC(C)C)C(=O)N[C@H](CC(C)C)C(=O)N[C@H](CCCCN)C(=O)N[C@H](C)C(=O)N[C@H](CC(C)C)C(=O)N[C@H](CO)C(=O)N[C@H](CCCCN)C(N)=O)[C@H](C)O)[C@H](C)O [Peptide D84, Ac-KL(Lys)SLL(Lys)TLS(Lys)AKAAKL(Lys)TLL(Lys)ALS(Lys)-amide]",HC50 at 18 h,Hemolytic activity,156 µg/mL
same,MIC,[1]; strain MB9941 (Table 9C),0.3 µM
same,MIC,[1]; strain MB9949 (Table 9C),0.7 µM
same,MIC,[1]; strain MB9951 (Table 9C),0.3 µM
same,MIC,[1]; strain MB9952 (Table 9C),0.7 µM
same,MIC,[1]; strain MB9953 (Table 9C),0.7 µM
same,MIC,[1]; strain MB9955 (Table 9C),0.3 µM
same,MIC,[1]; strain MB9963 (Table 9C),0.7 µM
"CC(=O)N[C@H](CCCCN)C(=O)N[C@H](CC(C)C)C(=O)N[C@H](CCN)C(=O)N[C@H](CO)C(=O)N[C@H](CC(C)C)C(=O)N[C@H](CC(C)C)C(=O)N[C@H](CCN)C(=O)N[C@@H](C(=O)N[C@H](CC(C)C)C(=O)N[C@H](CO)C(=O)N[C@H](CCN)C(=O)N[C@H](C)C(=O)N[C@H](CCCCN)C(=O)N[C@H](C)C(=O)N[C@H](C)C(=O)N[C@H](CCCCN)C(=O)N[C@H](CC(C)C)C(=O)N[C@H](CCN)C(=O)N[C@@H](C(=O)N[C@H](CC(C)C)C(=O)N[C@H](CC(C)C)C(=O)N[C@H](CCN)C(=O)N[C@H](C)C(=O)N[C@H](CC(C)C)C(=O)N[C@H](CO)C(=O)N[C@H](CCN)C(N)=O)[C@H](C)O)[C@H](C)O [Peptide D86, Ac-KL(Dbu)SLL(Dbu)TLS(Dbu)AKAAKL(Dbu)TLL(Dbu)ALS(Dbu)-amide] (Ac-[dK][dL][dDab][dS][dL][dL][dDab][dT][dL][dS][dDab][dA][dK][dA][dA][dK][dL][dDab][dT][dL][dL][dDab][dA][dL][dS][dDab]-NH2)",HC50 at 18 h,Hemolytic activity,> 2000 µg/mL and > 742 µM
same,HC50,human red blood cells,>741.5 µM
same,HC50,human red blood cells; 50% hemolysis of human red blood cells after 18 hours at 37° C.,> 742 µM
same,MIC,[1]; strain MB9941 (Table 9C),0.7 µM
same,MIC,[1]; strain MB9949 (Table 9C),0.7 µM
same,MIC,[1]; strain MB9951 (Table 9C),1.4 µM
same,MIC,[1]; strain MB9952 (Table 9C),0.7 µM
same,MIC,[1]; strain MB9953 (Table 9C),1.4 µM
same,MIC,[1]; strain MB9955 (Table 9C),0.7 µM
same,MIC,[1]; strain MB9963 (Table 9C),1.4 µM
